Reference: publication PMC7785020, “A unique hormonal recognition feature of the human glucagon-like peptide-2 receptor” (Cell Research, 2020)
Residue numbers refer to the chain shown, from its start.

Experiments:
[1] = target: T1, GLP-2R WT (1–553) (Homo sapiens, UniProt O95838); assay: radioligand competition binding, WT; conditions: COS-7, WT (1–553); [^125I]GLP-2(1–33, M10Y) 10–15 pM, 4 h, 4 °C; mean ± SEM, n ≥ 3 in duplicate
T1 construct: WT (1–553); expressed in transfected cells; host or cells: COS-7
Method: (§1) A stepwise oxidation reaction was performed by addition of 6 aliquots of 5 µL ChloramineT (30 µL/mL) with a 1-min interval during constant stirring. The reaction was terminated by the addition of 400 µL phase A (0.1% trifluoracetic acid) before being fractionated into 1 mL volume by reverse-phase high-performance liquid chromatography (RP-HPLC, Waters 600 SimiPrep system) on a C18 column. The iodinated protein was […] by increasing concentrations of phase B (Acetonitrile + 0.1% TFA) and tested for competitive binding ability.
(§2) One day before transfection, the COS-7 cells were seeded in 75 cm^2 culture flasks (3 million cells/flask) in DMEM, containing 3.9 g/L NaHCO3 and supplemented with 10% FBS, 1% L-glutamine, 180 units/mL penicillin and 45 µg/mL streptomycin. After an overnight culture at 37 °C, 10% CO2 and 95% air humidity, the cells were transiently transfected with different GLP-2R constructs or pcDNA3.1 vector as previously described.[52] Following 24-h incubation, the cells were transferred to Costa® microtiter plates (150,000 cells/well, PerkinElmer) to achieve a 5%–10% specific binding. […] The cells were then washed twice in binding buffer (4 °C), lysed and counted for radioactivity using a Wallac Gamma Counter (PerkinElmer).

[2] = target: T2, GLP-2R W249^ECL1A (Homo sapiens, UniProt O95838, W249A); assay: radioligand competition binding, W249^ECL1A; design: WT (1–553); expressed in transfected cells; conditions: COS-7, W249^ECL1A; [^125I]GLP-2(1–33, M10Y) 10–15 pM, 4 h, 4 °C; mean ± SEM, n ≥ 3 in duplicate
T2 sequence (O95838 1-553 W249A): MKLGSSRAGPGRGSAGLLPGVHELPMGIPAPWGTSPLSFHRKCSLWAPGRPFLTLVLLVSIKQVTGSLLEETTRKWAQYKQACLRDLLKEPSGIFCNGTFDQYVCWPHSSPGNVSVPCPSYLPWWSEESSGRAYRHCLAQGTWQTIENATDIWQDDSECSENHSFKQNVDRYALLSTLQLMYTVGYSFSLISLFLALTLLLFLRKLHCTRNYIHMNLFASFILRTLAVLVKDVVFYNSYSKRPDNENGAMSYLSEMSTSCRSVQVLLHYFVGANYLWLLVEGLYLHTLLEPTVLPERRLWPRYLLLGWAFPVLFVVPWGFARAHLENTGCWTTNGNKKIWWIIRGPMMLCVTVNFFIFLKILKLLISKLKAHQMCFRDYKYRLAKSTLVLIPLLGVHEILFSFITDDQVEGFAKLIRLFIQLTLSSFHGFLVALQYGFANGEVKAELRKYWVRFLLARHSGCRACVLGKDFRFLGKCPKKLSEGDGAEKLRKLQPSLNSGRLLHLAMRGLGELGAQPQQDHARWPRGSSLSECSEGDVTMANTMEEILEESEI
Method: as §1, §2

[3] = target: T3, GLP-2R D244^ECL1A (Homo sapiens, UniProt O95838, D244A); assay: radioligand competition binding, D244^ECL1A; design: WT (1–553); expressed in transfected cells; conditions: COS-7, D244^ECL1A; [^125I]GLP-2(1–33, M10Y) 10–15 pM, 4 h, 4 °C; mean ± SEM, n ≥ 3 in duplicate
T3 sequence (O95838 1-553 D244A): T2 sequence (O95838 1-553 W249A) with D244A, A249W
Method: as §1, §2

[4] = target: T4, GLP-2R N334^ECL2A (Homo sapiens, UniProt O95838, N334A); assay: radioligand competition binding, N334^ECL2A; design: WT (1–553); expressed in transfected cells; host or cells: COS-7; conditions: COS-7, N334^ECL2 A; [^125I]GLP-2(1–33, M10Y) 10–15 pM, 4 h, 4 °C; mean ± SEM, n ≥ 3 in duplicate
T4 sequence (O95838 1-553 N334A): T2 sequence (O95838 1-553 W249A) with A249W, N334A
Method: as §1, §2

T1 sequence (O95838 whole entry): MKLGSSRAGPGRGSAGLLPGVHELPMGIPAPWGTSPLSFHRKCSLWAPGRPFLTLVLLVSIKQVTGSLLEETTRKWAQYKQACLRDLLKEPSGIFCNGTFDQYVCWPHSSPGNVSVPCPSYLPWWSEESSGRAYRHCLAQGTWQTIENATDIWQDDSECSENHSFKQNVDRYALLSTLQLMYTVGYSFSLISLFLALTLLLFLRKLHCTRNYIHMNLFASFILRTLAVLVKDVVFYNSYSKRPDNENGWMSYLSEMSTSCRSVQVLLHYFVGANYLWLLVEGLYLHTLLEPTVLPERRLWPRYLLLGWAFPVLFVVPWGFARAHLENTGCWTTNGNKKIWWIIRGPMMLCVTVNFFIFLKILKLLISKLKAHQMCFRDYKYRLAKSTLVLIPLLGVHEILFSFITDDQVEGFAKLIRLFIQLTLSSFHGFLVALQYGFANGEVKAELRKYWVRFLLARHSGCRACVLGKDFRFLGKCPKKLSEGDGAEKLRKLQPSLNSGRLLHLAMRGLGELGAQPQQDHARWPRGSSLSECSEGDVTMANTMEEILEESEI

| SMILES | % Binding of WT [1] [%] | % Binding of WT [2] [%] | % Binding of WT [3] [%] | % Binding of WT [4] [%] |
| --- | --- | --- | --- | --- |
| CC[C@H](C)[C@H](NC(=O)[C@H](Cc1ccccc1)NC(=O)[C@H](CC(=O)O)NC(=O)[C@H](CCCNC(=N)N)NC(=O)[C@H](C)NC(=O)[C@H](C)NC(=O)[C@H](CC(C)C)NC(=O)[C@H](CC(N)=O)NC(=O)[C@H](CC(=O)O)NC(=O)[C@H](CC(C)C)NC(=O)[C@@H](NC(=O)[C@@H](NC(=O)[C@H](CC(N)=O)NC(=O)[C@H](CCSC)NC(=O)[C@H](CCC(=O)O)NC(=O)[C@H](CC(=O)O)NC(=O)[C@H](CO)NC(=O)[C@H](Cc1ccccc1)NC(=O)[C@H](CO)NC(=O)CNC(=O)[C@H](CC(=O)O)NC(=O)[C@H](C)NC(=O)[C@@H](N)Cc1c[nH]cn1)[C@@H](C)O)[C@@H](C)CC)C(=O)N[C@@H](CC(N)=O)C(=O)N[C@@H](Cc1c[nH]c2ccccc12)C(=O)N[C@@H](CC(C)C)C(=O)N[C@H](C(=O)N[C@@H](CCC(N)=O)C(=O)N[C@H](C(=O)N[C@@H](CCCCN)C(=O)N[C@H](C(=O)N[C@H](C(=O)N[C@@H](CC(=O)O)C(=O)O)[C@@H](C)O)[C@@H](C)CC)[C@@H](C)O)[C@@H](C)CC [Human GLP-2 (1–33)] | 99.2 ± 2.3 | 2.2 ± 1.2 | 69.1 ± 4.9 | 2.4 ± 1.3 |
| CC[C@H](C)[C@H](NC(=O)[C@H](Cc1ccccc1)NC(=O)[C@H](CC(=O)O)NC(=O)[C@H](CCCNC(=N)N)NC(=O)[C@H](C)NC(=O)[C@H](C)NC(=O)[C@H](CC(C)C)NC(=O)[C@H](CC(N)=O)NC(=O)[C@H](CC(=O)O)NC(=O)[C@H](CC(C)C)NC(=O)[C@@H](NC(=O)[C@@H](NC(=O)[C@H](CC(N)=O)NC(=O)[C@H](CCSC)NC(=O)[C@H](CCC(=O)O)NC(=O)[C@H](CC(=O)O)NC(=O)[C@H](CO)NC(=O)[C@H](Cc1ccccc1)NC(=O)[C@H](CO)NC(=O)CNC(=O)[C@H](CC(=O)O)NC(=O)CNC(=O)[C@@H](N)Cc1c[nH]cn1)[C@@H](C)O)[C@@H](C)CC)C(=O)N[C@@H](CC(N)=O)C(=O)N[C@@H](Cc1c[nH]c2ccccc12)C(=O)N[C@@H](CC(C)C)C(=O)N[C@H](C(=O)N[C@@H](CCC(N)=O)C(=O)N[C@H](C(=O)N[C@@H](CCCCN)C(=O)N[C@H](C(=O)N[C@H](C(=O)N[C@@H](CC(=O)O)C(=O)O)[C@@H](C)O)[C@@H](C)CC)[C@@H](C)O)[C@@H](C)CC [Teduglutide] | 99.7 ± 1.9 | 2.9 ± 2.0 | 77.5 ± 5.7 | 2.0 ± 2.1 |
